In patent US20260151398A1, “COMPOUNDS FOR REDUCING CHOLESTEROL AND TREATING LIVER AND KIDNEY DISEASE” (McMaster University, priority 2021, published 2026):
“Also recorded” adds a separate entry of the source.

Key:
[1] = system: HMGR, SREBP1, hepatocyte nuclear factor 1α; assay: mRNA expression of HMGR, SREBP1 and hepatocyte nuclear factor 1α in hepatocytes; assay type: cell-based, mouse
Procedure: (§1) RNA purification/isolation was performed using RNeasy mini kits (Qiagen) and normalized to 2 μg RNA using a NanoDrop® spectrophotometer. Samples were then reverse transcribed into cDNA using Superscript Vilo cDNA Synthesis kit (Thermofisher Scientific). Real-time PCR was executed with Fast SYBR Green (Thermo Fisher Scientific) using the ΔΔct method on the ViiA7 real-time PCR platform (Thermofisher Scientific).
Therefore, the effect of CF on TG-; induced SREBP2 activation was examined. […] SREBP2 activity was then examined at the protein level in HuH7 cells transfected with a plasmid encoding GFP driven by the sterol regulatory element (SRE-GFP; FIG. 2E to G). […] GFP expression was also visualized via immunofluorescent staining and quantified using ImageJ Software.

LDLR = LDLR / CD36 expression in cultured hepatocytes; assay type: cell-based, human
Excerpt: Cells were washed in phosphate-buffered saline (PBS), lysed in 4× SDS-PAGE lysis buffer and separated on 7-10% polyacrylamide gels in denaturing conditions. […] Membranes were then exposed to horse radish peroxidase conjugated secondary antibodies and visualized using EZ-ECL chemiluminescent reagent (Froggabio). Band intensities were quantified using ImageJ software ([…]) against membranes reprobed for housekeeping proteins.
Slides were then mounted with permafluor and visualized using the EVOS FL colour imaging system at either 20 or 40× magnification.
as §1
(§2) The uptake and accumulation of DiI-LDL was then quantified using a fluorescent spectrophotometer (Molecular Devices). […] Live-cell staining of the LDLR was also performed in HepG2 cells exposed to DiI-LDL (FIG. 11 D).

AMPK = AMPK phosphorylation in livers of CF-treated mice; assay type: in vivo, mouse; conditions: C57BL/6J mice, CF 100 mg/kg, 8 hours
Procedure: (§3) All animal studies were carried out in 8 h-fasted male wild-type, Pcsk9^−/− or Ampkβ1^−/− mice on the C57BL/6J background. CF (25-100 mg/kg-8 h) and CDN (50 mg/kg) treatments were administered via intraperitoneal injection unless specified otherwise. Primary mouse hepatocytes were isolated using a two-step process with EGTA ([…] in HEPES buffer, Sigma Aldrich) and collagenase (0.05% in HEPES buffer, Sigma Aldrich) in 12-week-old male mice on the C57BL/6J background. Cells were then washed, centrifuged, and plated following isolation in cell strainers. Hepatosure® 100-donor pooled primary human hepatocytes were purchased from Xenotech. Primary hepatocytes were regularly grown in William's E medium (Gibco, Thermo Fisher Scientific) containing 10% fetal bovine serum, 100 IU/ml penicillin, and 100 µg/ml streptomycin.
Previous studies have also shown that CF can promote the phosphorylation and activation of AMPK (Quan, H. Y., et al., 2013; Tsuda, S., et al., 2015), a liver-expressed kinase known to induce the inhibitory phosphorylation of SREBP1c (Li, Y., et al., 2011). […] Primary mouse hepatocytes were then isolated from wildtype (WT) and Ampkβ1−/− mice (Dzamko, N., et al., 2010).

[2] = system: Pcsk9+/+ and Pcsk9−/− mice; conditions: CF 8 h
Procedure: as §3

HepG2 cells = assay: DiI-LDL uptake assay in HepG2 cells; assay type: cell-based, human
Procedure: During the last 5 h of treatment (h 19 to 24) cells were exposed to DiI-LDL (10 μg/ml) and then washed with two changes of pre-warmed (37° C.) HBSS containing 20 mM HEPES prior to analysis.
as §2

cytosolic Ca^2+ levels = assay: Cytosolic Ca2+ in hepatocytes (Fura-2-AM); assay type: cell-based, human; conditions: immortalized HuH7 hepatocytes, listed as CF
Procedure: Intracellular Ca^2+ in Huh7 and HepG2 cells was measured using a high-affinity Ca^2+ indicator, Fura-2-AM (Thermofisher Scientific). ER Ca^2+ levels were assessed using the low-affinity Ca^2+ indicator, Mag-Fluo-4, and via transfection of cells with D1ER. The D1ER plasmid encodes an ER-resident calcium binding protein linked to a fluorescent protein and increases in fluorescence intensity upon Ca^2+ binding (7). […] Cells were then washed and incubated with Fura-2-AM (2 μM) or Mag-Fluo-4 (2 μM) for 45 minutes at 37° C. in HBSS containing 20 mM HEPES and 2% pluronic acid v/v (Thermofisher Scientific).
To test this hypothesis, cytosolic Ca^2+ levels in CF-treated cells were first examined using the high-affinity fluorescent Ca^2+ indicator, Fura-2-AM. […] The fluorescence intensity of cells treated with CF and control agents, TG and CDN, was assessed using a fluorescent spectrophotometer and visualized using a fluorescent microscope (FIG. 6 A). […] ER Ca^2+ content was also assessed indirectly with the high affinity Ca^2+ dye, fura-2-AM (FIG. 6 B).

## Cn1c(=O)c2c(ncn2C)n(C)c1=O [caffeine, 1,3,7-Trimethylxanthine]
[1]; PMH
  SREBP1 expression: blocked the expression
[1]; absence of TG
  hepatocyte nuclear factor 1α expression: did not yield a significant difference
[1]; mouse hepatocytes
  HMGR expression: blocked the expression
LDLR; HuH7 and HepG2
  LDLR mRNA transcript levels: reduced mRNA transcript levels of the LDLR
LDLR; cultured hepatocytes, CF 200 μM, immunoblots
  expression of PCSK9-regulated receptors (LDLR, CD36): increased the expression of PCSK9-regulated receptors
AMPK
  phosphorylation of AMPK (pAMPK) and pACC in liver: induced the phosphorylation and activation of AMPK
[2]
  hepatic and serum DiI fluorescence in Pcsk9−/− mice: failed to affect these parameters
HepG2 cells; HepG2, 24 h treatment, DiI-LDL 5 h
  LDLc (DiI-LDL) uptake: increased LDLc uptake
HepG2 cells; HepG2 stably transfected with PCSK9 shRNA, CF 200 μM
  LDLc uptake in PCSK9 shRNA cells: failed to significantly increase LDLc uptake
Cytosolic Ca^2+ levels
  cytosolic Ca^2+ levels: significantly increased cytosolic Ca^2+ levels; also recorded: increases cytosolic Ca^2+ levels
